Calls of active or inactive are those of the source. No cut-off for these calls is given here.
Test system: Candida albicans
Assay: Antifungal activity against Candida albicans at 100 ug/disk by sensitive disk method
Type: functional, organism-based

`CC[C@H](O)/C=C/C=C/C=C/C=O` was tested, and the Activity was “Active”.
